Reference: US6982285B2, “Control of parasites attached to skin of fish” (Novartis Animal Health US, Inc., priority 1999, dated 2006)

Experiments:
sea lice = conditions: in salt water (printed for trichlorfon); cited from earlier work
salmon louse [1] = assay: In vivo preliminary test for activity against the salmon louse following manual injection; parameters: species or system salmon louse on Atlantic salmon; conditions: naturally infected Atlantic salmon; single dose 40 mg fluazuron/kg body weight injected by hand into muscle tissue below dorsal fin; inspected 24, 48 and 72 hours later; at latest after 72 hours
Procedure: 1. In Vivo Preliminary Test for Activity Against the Salmon Louse Following Manual […]
20 naturally infected Atlantic salmon of various sizes from a fish farm are transferred to a well-aerated seawater aquarium for acclimatisation. They are left there for 3 days and fed daily with the usual food. On the fourth day, they are caught individually with a fish basket and quickly weighed. Each fish is injected by hand using an injection needle with a single dose, according to formulation example 1, of 40 mg fluazuron/kg body weight into the muscle tissue below the dorsal fin. The treated fish are returned to their aquarium.

salmon louse [2] = assay: Semi-automated in vivo test for activity against the salmon louse (needleless inoculation gun); parameters: species or system salmon louse on Atlantic salmon; conditions: Atlantic salmon artificially infected with 5 pre-adult, 5 adult female and 5 adult male salmon lice; 45 mg fluazuron/kg body weight, needleless inoculation gun below dorsal fin; after 24 hours
From the text: 2. Semi-Automated In Vivo Test for Activity Against the Salmon Louse.
Two well-aerated seawater aquariums, each of 5000 liter content, are set up parallel to one another at a distance of 2 m, with one being 10 cm higher than the other. The upper aquarium is provided with a kind of overflow which opens into a plexiglass channel which is open at the top and has a square inner cross-section of 10 cm. The upper end of this channel is secured by a movable grid and rests on the edge of the lower aquarium. Between the two aquariums, there is slight gradient. In the middle of the channel, two wire grids are attached with a 30 cm gap across the current, in such a way that they are either used as a water-permeable barrier or can be opened upwards on a hinge by a lever. At the bottom of the upper aquarium, there is an electrically controlled tail lift. When this is raised, the volume of water above it is diminished by reducing the depth of water. In addition, the upper aquarium contains a water feed which is secured by a grid and the lower aquarium has outlet holes. Water flows constantly from the upper to the lower aquarium. 200 Atlantic salmon of the same age are introduced into the upper aquarium and are each artificially infected with 5 pre-adult, 5 adult female and 5 adult male salmon lice. […]

SMILES | concentration required / effective against sea lice (sea lice) [ppm] | parasite infestation / number of surviving parasites (salmon louse [1]) | parasite infestation / number of surviving parasites (salmon louse [2])
COP(=O)(OC)OC=C(Cl)Cl [dichlorvos, 2,2-dichloroethenyl-dimethylphosphate] | ≥ 1 |  | 
O=C(NC(=O)c1c(F)cccc1F)Nc1ccc(Cl)c(Oc2ncc(C(F)(F)F)cc2Cl)c1 [fluazuron, 1-[4-chloro-3-(3-chloro-5-trifluoromethyl-2-pyridyloxy)phenyl]-3-(2,6-difluorobenzoyl)urea] |  | all the adult and pre-adult stages have been killed | all the female and male adults and pre-adult stages have been killed
COP(=O)(OC)C(O)C(Cl)(Cl)Cl (stereo not shown) [trichlorfon, dimethyl-2,2,2-trichloro-1-hydroxyethyl-phosphonate] | 300 |  | 
